This passage reports mutagenic call results from PubChem BioAssay AID1259407 (Chemical Carcinogenesis Research Information System (CCRIS), 2018).

Calls of active or inactive are those of the source. How the calls were made is not given here.

For the data set, the system named is CCRIS mutagenicity, Ames/micronucleus/aberration tests. The experiment in a line: CCRIS mutagenicity studies.
[1] abbreviates: Test System: AMES SALMONELLA TYPHIMURIUM, Strain/Indicator: TA98, Metabolic Activation: NONE, Method: STANDARD PLATE.
[2] abbreviates: Test System: AMES SALMONELLA TYPHIMURIUM, Strain/Indicator: TA100, Metabolic Activation: NONE, Method: STANDARD PLATE.
Where [3] appears, read: Test System: AMES SALMONELLA TYPHIMURIUM, Strain/Indicator: TA98, Metabolic Activation: NONE, Method: PREINCUBATION

For the compound `CN[C@H]1[C@@H](O[C@@H]2C3CC#CC4O[C@@]4(C4COC(=O)O4)C#CC3=C[C@H]2OC(=O)c2c(O)ccc3c(C)cc(OC)cc23)O[C@H](C)[C@H](O)[C@@H]1O` (some centres not stated), the mutagenic call is, setting by setting: under setting [1], “inactive; negative”; under setting [2], “inactive; negative”; (Test System: CHINESE HAMSTER OVARY, Strain/Indicator: CHO-D422 (APRT)/8-AZAADENINE, Metabolic Activation: NONE) “active; positive”; (Test System: CHINESE HAMSTER OVARY, Strain/Indicator: CHO-K1/6-THIOGUANINE, Metabolic Activation: NONE) “active; positive”; (Test System: E. COLI, Strain/Indicator: WP2 (HCR), Metabolic Activation: NONE, Method: STANDARD PLATE) “active; positive”; (Test System: E. COLI, Strain/Indicator: WP2, Metabolic Activation: NONE, Method: PREINCUBATION) “active; positive”. The mutagenic call by setting is: (Test System: E. COLI, Strain/Indicator: WP2, Metabolic Activation: NONE, Method: SPOT) “active; positive”; (Test System: E. COLI, Strain/Indicator: WP2 UVRA, Metabolic Activation: NONE, Method: PREINCUBATION) “active; positive”; (Test System: E. COLI, Strain/Indicator: WP2 UVRA, Metabolic Activation: NONE, Method: SPOT) “active; positive”; (Test System: UDS HUMAN CELLS, Strain/Indicator: THY INCORP (NON-S-PHASE), Metabolic Activation: NONE, Method: AUTORADIOGRAPHY) “active; positive”; (Test System: UDS HUMAN CELLS, Strain/Indicator: THY INCORP (NON-S-PHASE), Metabolic Activation: NONE, Method: LIQUID SCINTILLATION COUNTING) “active; positive”.
Regarding `C[C@H]1CC[C@@H]2[C@@H](C)[C@H]3[C@H](C[C@H]4[C@@H]5CC=C6C[C@@H](O[C@@H]7O[C@H](CO)[C@@H](O[C@@H]8O[C@@H](C)[C@H](O)[C@@H](O)[C@H]8O)[C@H](O)[C@H]7O[C@@H]7O[C@@H](C)[C@H](O)[C@@H](O)[C@H]7O)CC[C@]6(C)[C@H]5CC[C@]34C)N2C1`, the mutagenic call reads like this: under setting [1], “inactive; negative”; (Test System: AMES SALMONELLA TYPHIMURIUM, Strain/Indicator: TA98, Metabolic Activation: S-9, Method: STANDARD PLATE) “inactive; negative”; under setting [2], “inactive; negative”; (Test System: AMES SALMONELLA TYPHIMURIUM, Strain/Indicator: TA100, Metabolic Activation: S-9, Method: STANDARD PLATE) “inactive; negative”.
As for `Cc1c(N)cc([N+](=O)[O-])c(N)c1C`, the mutagenic call was “active; positive” under setting [1]; “active; positive” (Test System: AMES SALMONELLA TYPHIMURIUM, Strain/Indicator: TA98, Metabolic Activation: RAT, LIVER, S-9, AROCLOR 1254, Method: STANDARD PLATE); “inactive; negative” under setting [2]; “inactive; negative” (Test System: AMES SALMONELLA TYPHIMURIUM, Strain/Indicator: TA100, Metabolic Activation: RAT, LIVER, S-9, AROCLOR 1254, Method: STANDARD PLATE); “inactive; negative” (Test System: AMES SALMONELLA TYPHIMURIUM, Strain/Indicator: TA1535, Metabolic Activation: NONE, Method: STANDARD PLATE); “inactive; negative” (Test System: AMES SALMONELLA TYPHIMURIUM, Strain/Indicator: TA1535, Metabolic Activation: RAT, LIVER, S-9, AROCLOR 1254, Method: STANDARD PLATE). The mutagenic call by setting is: (Test System: AMES SALMONELLA TYPHIMURIUM, Strain/Indicator: TA1537, Metabolic Activation: NONE, Method: STANDARD PLATE) “inactive; negative”; (Test System: AMES SALMONELLA TYPHIMURIUM, Strain/Indicator: TA1537, Metabolic Activation: RAT, LIVER, S-9, AROCLOR 1254, Method: STANDARD PLATE) “inactive; negative”; (Test System: AMES SALMONELLA TYPHIMURIUM, Strain/Indicator: TA1538, Metabolic Activation: NONE, Method: STANDARD PLATE) “active; positive”; (Test System: AMES SALMONELLA TYPHIMURIUM, Strain/Indicator: TA1538, Metabolic Activation: RAT, LIVER, S-9, AROCLOR 1254, Method: STANDARD PLATE) “active; positive”.
For the compound `O=c1ccc(=O)[nH][nH]1`, the mutagenic call (End Point: IN VITRO CHROMOSOMAL ABERRATIONS, Test System: HUMAN PERIPHERAL BLOOD LYMPHOCYTES, Metabolic Activation: NONE) was “inactive; negative”; the mutagenic call (End Point: IN VITRO MICRONUCLEUS, Test System: HUMAN PERIPHERAL BLOOD LYMPHOCYTES, Metabolic Activation: NONE) is “inactive; negative”; the mutagenic call (End Point: IN VITRO MICRONUCLEUS, Test System: HUMAN PERIPHERAL BLOOD LYMPHOCYTES, Metabolic Activation: S-9) was “inactive; negative”; the mutagenic call (Test System: AMES SALMONELLA TYPHIMURIUM, Strain/Indicator: TA98, Metabolic Activation: HAMSTER, LIVER, S-9, AROCLOR 1254 (10%), Method: PREINCUBATION) was “inactive; negative”; the mutagenic call under setting [3] was “inactive; negative”; the mutagenic call (Test System: AMES SALMONELLA TYPHIMURIUM, Strain/Indicator: TA98, Metabolic Activation: RAT, LIVER, S-9, AROCLOR 1254 (10%), Method: PREINCUBATION) is “inactive; negative”. Besides, the mutagenic call by setting is: (Test System: AMES SALMONELLA TYPHIMURIUM, Strain/Indicator: TA100, Metabolic Activation: HAMSTER, LIVER, S-9, AROCLOR 1254 (10%), Method: PREINCUBATION) “inactive; negative”; (Test System: AMES SALMONELLA TYPHIMURIUM, Strain/Indicator: TA100, Metabolic Activation: NONE, Method: PREINCUBATION) “inactive; negative”; (Test System: AMES SALMONELLA TYPHIMURIUM, Strain/Indicator: TA100, Metabolic Activation: RAT, LIVER, S-9, AROCLOR 1254 (10%), Method: PREINCUBATION) “inactive; negative”; (Test System: AMES SALMONELLA TYPHIMURIUM, Strain/Indicator: TA1535, Metabolic Activation: HAMSTER, LIVER, S-9, AROCLOR 1254 (10%), Method: PREINCUBATION) “inactive; negative”; (Test System: AMES SALMONELLA TYPHIMURIUM, Strain/Indicator: TA1535, Metabolic Activation: NONE, Method: PREINCUBATION) “inactive; negative”; (Test System: AMES SALMONELLA TYPHIMURIUM, Strain/Indicator: TA1535, Metabolic Activation: RAT, LIVER, S-9, AROCLOR 1254 (10%), Method: PREINCUBATION) “inactive; negative”. Further, the mutagenic call (Test System: AMES SALMONELLA TYPHIMURIUM, Strain/Indicator: TA1537, Metabolic Activation: HAMSTER, LIVER, S-9, AROCLOR 1254 (10%), Method: PREINCUBATION) was “inactive; negative”; the mutagenic call (Test System: AMES SALMONELLA TYPHIMURIUM, Strain/Indicator: TA1537, Metabolic Activation: NONE, Method: PREINCUBATION) was “inactive; negative”; the mutagenic call (Test System: AMES SALMONELLA TYPHIMURIUM, Strain/Indicator: TA1537, Metabolic Activation: RAT, LIVER, S-9, AROCLOR 1254 (10%), Method: PREINCUBATION) is “inactive; negative”.
On to `C=CC(C)=O`, for which the mutagenic call (Test System: AMES SALMONELLA TYPHIMURIUM, Strain/Indicator: TA98, Metabolic Activation: HAMSTER, LIVER, S-9, AROCLOR 1254 (30%), Method: PREINCUBATION) is “inactive; negative”; the mutagenic call under setting [3] is “inactive; negative”; the mutagenic call (Test System: AMES SALMONELLA TYPHIMURIUM, Strain/Indicator: TA98, Metabolic Activation: RAT, LIVER, S-9, AROCLOR 1254 (30%), Method: PREINCUBATION) was “inactive; negative”; the mutagenic call (Test System: AMES SALMONELLA TYPHIMURIUM, Strain/Indicator: TA100, Metabolic Activation: HAMSTER, LIVER, S-9, AROCLOR 1254 (30%), Method: PREINCUBATION) was “active; positive”; the mutagenic call (Test System: AMES SALMONELLA TYPHIMURIUM, Strain/Indicator: TA100, Metabolic Activation: RAT, LIVER, S-9, AROCLOR 1254 (30%), Method: PREINCUBATION) was “inactive; negative”; the mutagenic call (Test System: AMES SALMONELLA TYPHIMURIUM, Strain/Indicator: TA100, Metabolic Activation: RAT, LIVER, S-9, Method: PREINCUBATION) is “active; positive”. The mutagenic call reads like this: (Test System: AMES SALMONELLA TYPHIMURIUM, Strain/Indicator: TA102, Metabolic Activation: S-9, Method: STANDARD PLATE) “inactive; negative”; (Test System: AMES SALMONELLA TYPHIMURIUM, Strain/Indicator: TA2638, Metabolic Activation: S-9, Method: STANDARD PLATE) “active; positive”; (Test System: E. COLI, Strain/Indicator: WP2 (PKM101), Metabolic Activation: S-9, Method: STANDARD PLATE) “active; positive”; (Test System: E. COLI, Strain/Indicator: WP2 UVRA (PKM101), Metabolic Activation: S-9, Method: STANDARD PLATE) “active; positive”.
Take `[Cl][Sn]([Cl])([Cl])[c]1ccccc1`: the mutagenic call by setting is: (Test System: AMES SALMONELLA TYPHIMURIUM, Strain/Indicator: TA98, Metabolic Activation: NONE, Method: SUSPENSION/PLATE) “inactive; negative”; (Test System: AMES SALMONELLA TYPHIMURIUM, Strain/Indicator: TA100, Metabolic Activation: NONE, Method: SUSPENSION/PLATE) “inactive; negative”.
